Source: patent US20010025059A1, “Composition and method for treating non-bacterial prostatitis” (priority 2000, published 2001)

What was measured:
[1] = Tests of bioavailability / transmural intestinal absorption; type: in vivo; conditions: quercetin alone; transmural intestinal absorption relatively low
[2] = system: non-bacterial prostatitis; test: Example II: double blind study, 30 patients without positive bacterial cultures localized to the prostatic fluid; type: in vivo, human
Procedure: A double blind study using 30 patients without positive bacterial cultures localized to the prostatic fluid were enrolled in a double blind study. Seventeen of the patients received a composition comprised of quercetin in amount of 500 milligrams, bromelain in an amount of 10 milligrams, and papain in an amount of 10 milligrams as the active ingredients thereof. After a randomized study was completed, an additional fifteen patients were treated in an open label study with […]. […] The mean symptom score improved from 21.0 to 13.1 in the group receiving quercetin, but from 20.2 to 18.8 in the placebo group. This represented an improvement of 35%. In those patients which received only the quercetin, without the papain and bromelain, with obtainable extra prostatic secretions, the white blood cell count in the prostatic fluid decreased from 16.8 to 5.3, versus a decrease from 13.1 to 8.3 in the placebo patients.

## O=c1c(O)c(-c2ccc(O)c(O)c2)oc2cc(O)cc(O)c12 [quercetin]
[1]
  bioavailability: does not have a high bioavailability
[2]; end of study
  mean symptom score, after treatment: 13.1
[2]; human, in vivo
  improvement of mean symptom score: 35%
[2]; patients with obtainable prostatic secretions, end of study
  white blood cell count in the prostatic fluid, after treatment: 5.3
[2]; patients with obtainable prostatic secretions, starting value
  white blood cell count in the prostatic fluid, before treatment: 16.8
[2]; starting value of the group
  mean symptom score, before treatment: 21.0
